Results on one substance are retold here after patent US12496267B2, “Extract of organic humified materials” (priority 2019, dated 2025).

Assay [1] has as its system Paxillin. The assay is described as follows: Western blot of Paxillin in scratched HaCat cells. It is filed as cell-based, human. To be noted: comparators: EGF; Fulvic Acid (1% per FIG. 10). On the procedure: FIG. 10: HaCat cells were cultured as described. 72h after mechanical disruption, cells were lysed (PBS/1% Triton X100, 30 min, 4° C.) and subsequently subjected to SDS-PAGE/Western Blotting. Cell adhesion markers were determined with specific antibodies directed towards cell adhesion markers E-Cadherin and Paxillin. Reactivities were normalized using an antibody directed against the housekeeping protein Actin.
FIG. 11: HaCat cells were cultured as described. 72h after mechanical disruption, cells were lysed (PBS/1% Triton X100, 30 min, 4° C.) and subsequently subjected to SDS-PAGE/Western Blotting. Cell adhesion markers were determined with specific antibodies directed towards cell adhesion markers E-Cadherin and Paxillin.
A human Keratinocyte cell line (HaCat) was cultivated in 6 well plates to reach a dense cell layer. Subsequently the monolayer was injured with a mechanical device leading to a cross formed scratch in the monolayer. […] The ingrowth of cells was monitored/documented for another 72 hours to the point where the cross formed injury of the monolayer was recovered with cells. […] Subsequently cell extracts were analysed by SDS-PAGE/Western Blotting using antibodies directed towards the […] markers E-Cadherin and Paxillin (FIG. 10 and FIG. 11). […]

The test system of assay [2] is Keratin 16. The assay is described as follows: Skin barrier: Western blot of Cytokeratin 16 in HaCat 3-dimensional culture. In kind it is cell-based, human. On the procedure:
FIG. 14: Western Blot Analysis with anti-Cytokeratin 16 was performed as described. The primary antibody (Keratin 16 (KRT16): Cusabio Technology CSB-PA012515LA01Hu) was used in a dilution of 1:500. After the primary incubation step binding of the primary antibody was visualized with an anti-rabbit-IG conjugated to horse raddish peroxidase. Detection of Cytokeratin-16 with an apparent MW of 51 kDa was visualized using the ECL Technology in combination with a BioRad Gel documentation system.
(§1) To determine the effects of the Alpine Heilmoor Extract on the stability of the membrane barrier, human Keratinocytes (HaCat) were analysed in a 3-dimensional cell culture system. Hereby, cells (5×10^4/insert) were seeded on culture inserts of the system and cultivated in 24 well plates for 14 days with medium exchange in 3-day intervals and permanent monitoring of the TEER value. Reaching a constant TEER value cells were stimulated with heat inactivated C. acnes (10^7 cells/well) for 16 h. Subsequently, cells were washed and incubated with described 2nd line substances (i.e. AHE solutions, comprising either 1%, 2% or 5% AHE in PBS, generated as described in Example 8) for 24 hours. […]
(§2) Effects of the indicated stimuli/second line substances were evaluated by determination of the expression levels of membrane markers Cytokeratin 10/Cytokeratin 16/Fillagrin and Ki67. […]
(In general: A western blot detects proteins with antibodies after separation by electrophoresis.)

Assay [3] deals with human colorectal cells (CaCo2). The assay is described as follows: Membrane barrier enhancement: TEER of CaCo2 3-dimensional culture. It is filed as cell-based. The settings on record: EGF. On the procedure: To determine the effects of the test substances on the stability on the human gut barrier, human colorectal cells (CaCo2) were analysed in a 3-diemsional cell culture system. Cells (5×10^4/insert) were seeded on culture inserts of the system and cultivated in 24 well plates for 14 days with medium exchange in 3-day intervals and permanent monitoring of the TEER value. […] Subsequently, cells were washed and incubated with described 2nd line substances (i.e. AHE solutions, comprising either 1%, 2% or 5% AHE in PBS, generated as describe din Example 8) for 24 hours. After this step cells were washed and cell extracts were prepared by incubation with PBS/1% Triton X100. Cell extracts are ready for SDS-PAGE/Western Blotting.

The test system of assay [4] is Keratin 10. The assay is described as follows: Skin barrier: Western blot of Cytokeratin 10 in HaCat 3-dimensional culture. It is filed as cell-based, human. To be noted: positive control EGF. On the procedure: FIG. 13: Western Blot Analysis with anti-Cytokeratin 10 was performed as described. The primary antibody (Keratin 10 (KRT10): Cusabio Technology CSB-PA445987) was used in a dilution of 1:1000. After the primary incubation step binding of the primary antibody was visualized with an anti-rabbit-IG conjugated to horse raddish peroxidase. Detection of Cytokeratin-10 with an apparent MW of 58 kDa was visualized using the ECL Technology in combination with a BioRad Gel documentation system.
as §1, §2

Assay [5] has as its system human Keratinocyte cell line (HaCat). The assay is described as follows: Wound healing: scratch of HaCat keratinocyte monolayer, regeneration over 72 h. It is filed as cell-based. To be noted: EGF 10 ng/ml; within 72 hours. As for the experimental part:
A human Keratinocyte cell line (HaCat) was cultivated in 6 well plates to reach a dense cell layer. Subsequently the monolayer was injured with a mechanical device leading to a cross formed scratch in the monolayer. Upon scratching cells were washed once with PBS and treated with the test substances outlined above as well as with appropriate controls. The ingrowth of cells was monitored/documented for another 72 hours to the point where the cross formed injury of the monolayer was recovered with cells. At that point cells were washed and harvested. Cell extracts were generated by treatment with PBS/1% Triton X100 (30 min on ice). Subsequently cell extracts were analysed by SDS-PAGE/Western Blotting using antibodies directed towards the […] markers E-Cadherin and Paxillin (FIG. 10 and FIG. 11).
Cells were treated with AHE solutions, comprising either 1% or 5% AHE in PBS (phosphate buffered saline). The dry extract was generated as described in Example 1, and then dissolved in PBS at 37° C. for 72 hours using a weight/volume ratio of 0.1 g/mL, 0.2 g/mL or 0.5 g/mL, respectively.
For comparison, cells were also treated with Fulvic Acid and Charcoal, EGF was used as positive control, Medium without active substance was used as negative control.

Turning to “EGF: positive control (10 ng/ml in Example 8)”, the “expression of cell adhesion molecule Paxillin” value in assay [1] is listed as “also observed”. For the same substance, the “Cytokeratin 16 specific band (51 kDa)” value in assay [2] (EGF) is “detected”. Also, the “anti-Cytokeratin 16 reactive protein complex at about 75 kDa” value in assay [2] (positive control EGF) was “visible”. In addition, the TEER value in assay [3] (D15 (1 d after stimulation with IL1alpha/TNF-alpha)) was 4800 Ω/cm^2; in assay [3] (D15 (non stimulated controls)) it was 4000 Ω/cm^2; in assay [3] (D17 (after regeneration phase with extracts: non stimulated controls)), 7200 Ω/cm^2; in assay [3] (D17 (after regeneration phase with extracts: stimulated skin)) it was 9600 Ω/cm^2. Besides, the “Cytokeratin 10 band (58 kDa)” value in assay [4] was “induction”. In addition, the “regeneration of scratched keratinocyte monolayer” value in assay [5] is on record as “regenerated well”.
